Laboratory results reported in US11643417B2, “Tetrahydrobenzofurodiazepinone compound and pharmaceutical use thereof” (priority 2020, dated 2023).
Read-outs that look alike come from different tables or passages of the source.

Molecular target: human Pim-1 (Homo sapiens (Human), UniProt P11309)
Experiment: biochemical
Assay type: biochemical
Conditions: Ki converted from IC50, purified human Pim-1, Pim2tide substrate, ADP-Glo
Experimental: The human Pim-1 inhibitory activity of the test compounds was evaluated as follows.
(1) Purification of Human Pim-1
DNA fragment in which a His-Tag sequence and a translation termination sequence are added to the 3′-end of human Pim-1 translation sequence was amplified by PCR (Polymerase Chain Reaction), using human Pim-1 gene-inserted plasmid DNA (Kazusa DNA Laboratory, model number FXC11400) as a template. The amplified DNA fragment was fused with pGEx-6P-1 (GE Healthcare Japan, model number 27-4597-1) digested with BamHI and EcoRI using In-Fusion HD Cloning Kit (Takara Bio, model number 639649). […] The base sequence of Pim-1 cloned into vector was determined by Dye Terminator method using BigDye Terminator v3.1 Cycle Sequencing Kit (Applied Biosystems, model number 4337456). […] Escherichia coli BL21 (DE3) (Merck KGaA, model number 69449-4) transformed with human Pim-1-expressed plasmid DNA was cultured in 2×YT medium (Becton Dickinson, model number 2404020) at 30° C., until the optical concentration at 620 nm (OD620) reached 0.6, and then cultured overnight at 20° C. in the presence of 0.5 mmol/L isopropyl b-D-1-thiogalactopyranoside. After the completion of so the culture, the cells were collected and suspended in Homogenate Buffer (50 mmol/L Tris-HCl (pH 7.5), 500 mmol/L NaCl, 1% Tween20, complete, EDTA-free (Roche, model number 1873580)), and the suspended cells were lysed by passing through a microfluidizer M-110H (Mizuho Kogyo Co., Ltd.). The lysate was centrifuged at 10,100×g for 10 minutes, 4° C., and the supernatant was filtered through MILLEX-HV Filter (0.45 μm) (Millipore, SLHV033RS) to remove the cell residues. The filtrate was loaded onto complete His-Tag Purification Resin (Roche Diagnostics, model number 05 893 682 0.01). The column was washed with Equilibration Buffer-1 (50 mmol/L Tris-HCl (pH 7.5), 500 mmol/L NaCl, 1% Tween 20) containing 5 mmol/L Imidazole, followed by Equilibration Buffer-1 containing 50 mmol/L Imidazole, the human Pim-1 to which GST-Tag derived from pGEx-6P-1 was eluted with Equilibration Buffer-1 containing 150 mmol/L imidazole. […] The protease reaction was carried out by stirring overnight at 4° C., and the human Pim-1 in which the GST-Tag sequence was cleaved was eluted. The eluate was loaded onto a gel filtration column (Superdex-200 […] (GE Healthcare, model number 17-5175-01)) equilibrated with Equilibration Buffer-3 (50 mmol/L Tris-HCl (pH 7.5), 500 mmol/L NaCl, 0.05% Tween20, 0.5 mmol/L EDTA, 2 mmol/L DTT, 10% Glycerol), and eluted. The eluate was used as a human Pim-1 purified fraction.
The protein concentration of the human Pim-1 purified fraction was measured with Pierce 660 nm Protein Assay Reagent (Thermo Fisher Scientific, model number 22660). The purified fraction was rapidly frozen in liquid nitrogen, and then stored at −80° C. The His-Tag-added human Pim-1 was detected by Western blotting using a mouse anti-His monoclonal antibody (WAKO, model number 011-23091).
(2) Evaluation of Human Pim-1 Inhibitory Activity
The calculation of the Pim-1 inhibitory activity of the compound was performed using the following solution according to the protocol attached to ADP-Glo Kinase Assay (cat. V9102, Promega). The purified enzyme of human Pim-1 described above was used.
(i) Preparation of Solution
The kinase buffer solution (50 mmol/L HEPES (pH 7.5), 5 mmol/L MgCl2, 1 mmol/L DTT, 0.05% BSA) was prepared by dissolving HEPES (Jena Bioscience), MgCl2 (Sigma-Aldrich), DTT (Sigma-Aldrich) and BSA (Sigma-Aldrich) in purified water.
The ATP solution (288 μmol/L) was prepared by dissolving 100 mmol/L ATP (Promega) in the kinase buffer solution.

Chain of human Pim-1 (P11309 whole entry): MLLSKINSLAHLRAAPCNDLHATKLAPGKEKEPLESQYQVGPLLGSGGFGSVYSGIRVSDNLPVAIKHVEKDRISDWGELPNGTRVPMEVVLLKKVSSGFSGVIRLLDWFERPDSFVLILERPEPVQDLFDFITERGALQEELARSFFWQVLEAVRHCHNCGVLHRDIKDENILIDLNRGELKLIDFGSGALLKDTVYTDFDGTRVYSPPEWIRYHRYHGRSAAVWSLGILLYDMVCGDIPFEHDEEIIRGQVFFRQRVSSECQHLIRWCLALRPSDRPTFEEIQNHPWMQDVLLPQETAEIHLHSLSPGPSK

Row | SMILES | Ki (read-out: hPim1 Ki) [nM] | Ki (hPim1 Ki (nM)) [nM]
1 | CC1(O)CCC(C(F)(F)CN2CCNC(=O)c3oc4ccc(C(F)(F)F)cc4c32)CC1 (single isomer, unassigned) [Example 147] | 0.213 | 
2 | O=C1NC2(CC2)CN(CCC2CCC(O)CC2)c2c1oc1ccc(C(F)(F)F)cc21 (stereo not shown) [Example 126] | 0.464 | 
3 | O=C1NCCN(CCC2CCC(CO)CC2)c2c1oc1ccc(C(F)(F)F)cc21 (stereo not shown) [Example 97] | 0.107 | 
4 | O=C1NCCN(CC(F)(F)C2CC(O)(CO)CCO2)c2c1oc1ccc(C(F)(F)F)cc21 (stereo not shown) [Example 13] | 0.021 | 
5 | C[C@@H]1CN(CC[C@H]2CC[C@](O)(CO)CC2)c2c(oc3ccc(C(F)(F)F)cc23)C(=O)N1 [Example 2-07] | 0.136 | 
6 | O=C1NCCN(CCC2CCC(c3ncn[nH]3)CC2)c2c1oc1ccc(C(F)(F)F)cc21 (stereo not shown) [Example 105] | 0.607 | 
7 | O=C1NCCN(CC(F)(F)C2CCC(O)CC2)c2c1oc1ccc(C(F)(F)F)cc21 (stereo not shown) [Example 107, 1-(2,2-difluoro-2-(4-hydroxycyclohexyl)ethyl)-9-(trifluoromethyl)-1,2,3,4-tetrahydro-5H-benzofuro[3,2-e] [1,4]diazepin-5-one] | 0.0862 | 
8 | CC(C)(O)C1CCOC(C(F)(F)CN2CCNC(=O)c3oc4ccc(C(F)(F)F)cc4c32)C1 (stereo not shown) [Example 49] | 0.0389 | 
9 | CC1(CO)CCC(CCN2CCNC(=O)c3oc4ccc(C(F)(F)F)cc4c32)CC1 (stereo not shown) [Example 94] | 0.129 | 
10 | C[C@]1(O)CC[C@H](CCN2CCNC(=O)c3oc4ccc(C(F)(F)F)cc4c32)CC1 [Example 80] | 0.205 | 
11 | C[C@H]1CO[C@@H](CCN2CCNC(=O)c3oc4ccc(C(F)(F)F)cc4c32)CO1 [Example 43] | 0.741 | 
12 | O=C1NCCN(CC[C@H]2CC[C@](O)(CCO)CC2)c2c1oc1ccc(C(F)(F)F)cc21 [Example 108] | 0.298 | 
13 | O=C1NCCN(CC(F)(F)C2CC(CO)CCO2)c2c1oc1ccc(C(F)(F)F)cc21 (single isomer, unassigned) [Example 14] |  | 0.0334
14 | CC1(C)OC[C@]2(CC[C@H](CCN3CCNC(=O)c4oc5ccc(C(F)(F)F)cc5c43)CC2)O1 [Example 2-01] | 1.6 | 
15 | COC[C@]1(OC)CC[C@@H](CCN2CCN(C)C(=O)c3oc4ccc(C(F)(F)F)cc4c32)CC1 [Example 2-05] | 13.2 | 
16 | COCC1(O)CCC(CCN2CCNC(=O)c3oc4ccc(C(F)(F)F)cc4c32)CC1 (stereo not shown) [Example 112] | 1.03 | 
17 | O=C1NCCN(CCC2COCC(CO)O2)c2c1oc1ccc(C(F)(F)F)cc21 (racemic) [Example 132] | 3.59 | 
18 | O=C(OC[C@@H]1CO[C@H](CCN2CCNC(=O)c3oc4ccc(C(F)(F)F)cc4c32)CO1)c1ccccc1 [Example 69] | 18.5 | 
19 | [2H]C1(O)CCC(CCN2CCNC(=O)c3oc4ccc(C(F)(F)F)cc4c32)CC1 (relative stereo) [Example 91] |  | 0.198
20 | O=C1NCCN(CC(F)(F)C2COCCO2)c2c1oc1ccc(C(F)(F)F)cc21 (racemic) [Example 56] |  | 0.0723
21 | CN1CCN(CC(F)(F)C2CC(O)CCO2)c2c(oc3ccc(C(F)(F)F)cc23)C1=O (stereo not shown) [Example 20] | 0.38 | 
22 | O=C1NCCN(CCC2CCC(O)(C(F)(F)CO)CC2)c2c1oc1ccc(C(F)(F)F)cc21 (single isomer, unassigned) [Example 118] | 0.127 | 
23 | NC(=O)C1CCC(CCN2CCNC(=O)c3oc4ccc(C(F)(F)F)cc4c32)CC1 (stereo not shown) [Example 104] | 0.819 | 
24 | CS(=O)(=O)CC1(O)CCC(CCN2CCNC(=O)c3oc4ccc(C(F)(F)F)cc4c32)CC1 (stereo not shown) [Example 122] | 0.532 | 
25 | O=C1NC2(CC2)CN(CC[C@@H]2CO[C@H](CF)CO2)c2c1oc1ccc(C(F)(F)F)cc21 [Example 156] | 0.0103 | 

Row | SMILES | Ki (read-out: hPim1 Ki) [nM] | Ki (hPim1 Ki (nM)) [nM]
26 | O=C1NCCN(CC(F)(F)C2COCCO2)c2c1oc1ccc(C(F)(F)F)cc21 (single isomer, unassigned) [Example 70] | 0.0734 | 
27 | O=C1NCCN(CCC2COCCO2)c2c1oc1c(F)cc(C(F)(F)F)cc21 (racemic) [Example 76] | 0.399 | 
28 | CC(C)(O)C1CCC(CCN2CCNC(=O)c3oc4ccc(C(F)(F)F)cc4c32)CC1 (stereo not shown) [Example 98] | 1.07 | 
29 | O=C1NC2(CC2)CN(CC[C@H]2CO[C@H](CO)CO2)c2c1oc1ccc(C(F)(F)F)cc21 [Example 155] | 0.221 | 
30 | O=C1NCCN(CC[C@H]2CC[C@@](O)(CCO)CC2)c2c1oc1ccc(C(F)(F)F)cc21 [Example 109] | 0.193 | 
31 | O=C1NCCN(CC(F)(F)[C@H]2CO[C@H](CO)CO2)c2c1oc1ccc(C(F)(F)F)cc21 [Example 95, 1-(2,2-difluoro-2-((2R,5R)-5-(hydroxymethyl)-1,4-dioxan-2-yl)ethyl)-9-(trifluoromethyl)-1,2,3,4-tetrahydro-5H-benzofuro[3,2-e][1,4]diazepin-5-one] | 0.0443 | 
32 | CS(=O)(=O)C[C@@H]1CO[C@@H](CCN2CC3(CC3)NC(=O)c3oc4ccc(C(F)(F)F)cc4c32)CO1 [Example 159] | 0.164 | 
33 | C[C@H]1CO[C@H](CCN2CCNC(=O)c3oc4ccc(C(F)(F)F)cc4c32)CO1 [Example 63] | 0.452 | 
34 | O=C1NCCN(CCC2CCC(O)CC2)c2c1oc1ccc(C(F)(F)F)cc21 (stereo not shown) [Example 60] |  | 0.273
35 | CN(C)C(=O)C1CCC(CCN2CCNC(=O)c3oc4ccc(C(F)(F)F)cc4c32)CC1 (stereo not shown) [Example 101] | 0.775 | 
36 | CC1(O)CCC(CCN2CC3(CC3)NC(=O)c3oc4ccc(C(F)(F)F)cc4c32)CC1 (single isomer, unassigned) [Example 128] | 0.031 | 
37 | O=C1OC[C@]2(CC[C@H](CCN3CCNC(=O)c4oc5ccc(C(F)(F)F)cc5c43)CC2)O1 [Example 2-02] | 0.43 | 
38 | O=C1NC2(CC2)CN(CCC2CCC(O)CC2)c2c1oc1ccc(C(F)(F)F)cc21 (stereo not shown) [Example 125] |  | 0.0592
39 | O=C1NCCN(CC(F)(F)C2CC3(CCO2)OCCO3)c2c1oc1ccc(C(F)(F)F)cc21 (racemic) [Example 46] | 0.0715 | 
40 | N#CC[C@H]1CO[C@H](CCN2CCNC(=O)c3oc4ccc(C(F)(F)F)cc4c32)CO1 (racemic) [Example 129] | 1.18 | 
41 | O=C(OC[C@H]1CO[C@H](CCN2CCNC(=O)c3oc4ccc(C(F)(F)F)cc4c32)CO1)c1ccccc1 [Example 73] | 4.74 | 
42 | COC(C1CC(O)(CO)C1)C1(CN2CCNC(=O)c3oc4ccc(C(F)(F)F)cc4c32)CC1 (racemic) [Example 22] | 0.848 | 
43 | O=C1NC2(CC2)CN(CC[C@@H]2CO[C@H](CO)CO2)c2c1oc1ccc(C(F)(F)F)cc21 [Example 153] | 0.302 | 
44 | O=C1NCCN(CCC2COCC(CO)O2)c2c1oc1ccc(C(F)(F)F)cc21 (racemic) [Example 133] | 1.58 | 
45 | O=C1NCCN(CCC2CCC(C(=O)O)CC2)c2c1oc1ccc(C(F)(F)F)cc21 (stereo not shown) [Example 86] | 4.06 | 
46 | O=C1NCCN(CCC2CC(O)CCO2)c2c1oc1ccc(C(F)(F)F)cc21 (stereo not shown) [Example 1] | 0.697 | 
47 | CS(=O)(=O)CC1COCC(CCN2CCNC(=O)c3oc4ccc(C(F)(F)F)cc4c32)O1 (racemic) [Example 136] | 16 | 
48 | CC1(O)CCOC(C(F)(F)CN2CCNC(=O)c3oc4ccc(C(F)(F)F)cc4c32)C1 (stereo not shown) [Example 67, 1-(2,2-difluoro-2-(4-hydroxy-4-methyltetrahydro-2H-pyran-2-yl)ethyl)-9-(trifluoromethyl)-1,2,3,4-tetrahydro-5H-benzofuro[3,2-e][1,4]diazepin-5-one] | 0.242 | 
49 | O=C1NCCN(CC(F)(F)[C@@H]2CO[C@H](CO)CO2)c2c1oc1ccc(C(F)(F)F)cc21 [Example 78] | 0.227 | 
